Patent EP0535528A1, “Antibacterial 5-Nitro-1-methyl-imidazolyl-3-terbutyl-2-hydroxy-aryl-carbinols” (EURORESEARCH S.r.L., priority 1991, dated 1993)

System: Swiss female albino mice
Assay: Oral and intraperitoneal acute toxicity in mice (LD50, Probits method)
Type: in vivo
Conditions: for Mortality per day: 5 animals; for mortality: intraperitoneal
Procedure, shortened: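 Fasted (16 h) female mice, 5 per dose, dosed orally at 5000 mg/kg in 0.5% carboxymethylcellulose or i.p. at 2000 mg/kg in physiological solution; further doses given if deaths occurred. Mortality and behaviour observed 14 days; LD50 from cumulative mortality by Probits method.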

## COc1cc(C(O)c2ncc([N+](=O)[O-])n2C)c(O)c(C(C)(C)C)c1 (stereo not drawn) [EU11100, 5-nitro-1-methyl-imidazolyl-3-terbutyl-2-hydroxy-5-methoxy-phenyl-carbinol]
Swiss female mice, ip, 14 days observation, 20160 min
  LD50 i.p.: LD50 i.p.= 890 mg/Kg (confidence limits: 781 - 1014)
ip, 500 mg/Kg
  Observation on the behaviour: 500 mg/Kg: no alteration
ip, 500 mg/Kg, day 1
  Mortality per day: 0
ip, 750 mg/Kg
  Observation on the behaviour: 750 mg/Kg: motor activity reduction
ip, 750 mg/Kg, day 1
  Mortality per day: 1
ip, 1000 mg/Kg, day 1
  Mortality per day: 3
ip, 1500 mg/Kg, day 1
  Mortality per day: 5
ip, 2000 mg/Kg, day 1
  Mortality per day: 5
ip, doses 2000 - 1500 - 1000 mg/Kg
  Death within (time): 6 to 24 h
ip, doses 2000 - 1500 - 1000 mg/Kg, after 15-30'
  Observation on the behaviour: considerable behaviouristic alteration, such as the loss of body-righting reflex
ip, doses 2000 - 1500 - 1000 mg/Kg, after 15-30', listed as EU 11100
  Observation on the behaviour: considerable reduction motor activity and subsequent loss of body righting reflex
mice, 1500 mg/kg
  mortality: 100%
mice, 2000 mg/kg
  mortality: 100%
mice, intraperitoneal, 2000, 1500 and 1000 mg/kg
  toxicity when intraperitoneally administered: toxic
mice, oral, 5000 mg/kg
  toxicity when orally administered: not toxic
os, 5000 mg/Kg
  Observation on the behaviour: No alteration
os, 5000 mg/Kg, day 1
  Mortality per day: 0
os, 5000 mg/Kg, day 2
  Mortality per day: 0
os, 5000 mg/Kg, day 3
  Mortality per day: 0
os, 5000 mg/Kg, day 4
  Mortality per day: 0
os, 5000 mg/Kg, day 5
  Mortality per day: 0
os, 5000 mg/Kg, day 6
  Mortality per day: 0
os, 5000 mg/Kg, day 7
  Mortality per day: 0
os, 5000 mg/Kg, day 8
  Mortality per day: 0
os, 5000 mg/Kg, day 9
  Mortality per day: 0
os, 5000 mg/Kg, day 10
  Mortality per day: 0
os, 5000 mg/Kg, day 11
  Mortality per day: 0
os, 5000 mg/Kg, day 12
  Mortality per day: 0
os, 5000 mg/Kg, day 13
  Mortality per day: 0
os, 5000 mg/Kg, day 14
  Mortality per day: 0
